Reference: patent US20110117168A1, “METHODS AND COMPOSITIONS FOR SOFT TISSUE REPAIR” (AFFINERGY, INC., priority 2009, published 2011)
Ends that are not written are not given here.

Experiments:
human ASCs = assay: Biotinylated peptide cell binding specificity by flow cytometry (Neutravidin-PE); type: cell-based; conditions: 25 μM peptide solution, 30 min at 4° C.
From the text: (§1) The synthetic biotinylated cell binding peptide SEQ ID NO: 4 was examined for its ability to specifically bind MSCs compared to a number of other cells types including adipose-derived mesenchymal stem cells (ASCs), dermal fibroblasts, rodent MSCs, red blood cells, monocytes, lymphocytes and granulocytes. The cell binding peptide was biotinylated as described herein at Example 2. Cultured cells of each type were either purchased (ASCs and dermal fibroblasts) or isolated from rodent bone marrow (rodent MSCs) or human blood. Cells were first harvested and resuspended at 10^6/mL in PBS+2% fetal bovine serum (FBS). An aliquot of cells (50 μL) was incubated in 50 μL of peptide solution (25 μM in PBS+FBS) for 30 min at 4° C. Cells were then washed twice in PBS+FBS with 300×g centrifugation for 5 min between washes. Fluorescently-tagged neutravidin (Neutravidin-PE from INVITROGEN) was then added to the cells to label biotinylated peptide bound to cells. Neutravidin-PE was diluted 1:250 from stock and applied at 50 μL to cells. Cells were then washed in PBS+FBS, and acquired on a BD […]. Peptide reactivity was then measured as percent positivity relative to Neutravidin-PE staining without the addition of biotinylated peptide.

human MSCs [1] = assay: as above; type: cell-based; conditions: 25 μM peptide solution, 30 min at 4° C.
From the text: as §1

dermal fibroblasts = assay: as above; type: cell-based, human; conditions: 25 μM peptide solution, 30 min at 4° C.
From the text: as §1

ECFCs = assay: Biotinylated peptide binding to endothelial and other cells by flow cytometry; type: cell-based, human; conditions: biotinylated peptide 10 μM, 30 min at 4° C.
Experimental: (§2) The synthetic biotinylated binding peptide SEQ ID NO: 4 was further examined for its ability to bind endothelial cells compared to other cell types (see FIG. 16). […] ECFCs are clonally expanded cells isolated from human umbilical cord blood, and are considered highly proliferative endothelial progenitor cells (EPCs) based on their clonogenic and proliferative potential. In another experiment, binding peptide SEQ ID NO: 4 was assayed for its ability to selectively isolate endothelial cells versus smooth muscle cells in the presence of whole blood. HUVECs or UASMCs were incubated in the presence of medium containing 20% whole blood and binding peptide SEQ ID NO: 4-conjugated magnetic beads (via biotin-SA) for 30 min. The solutions containing the bead-peptide-cell complexes were then passed through a […] LS column in a magnetic field. The column was washed, and the remaining peptide-bound cells were then released from the magnetic field and counted.

HUVECs [2] = assay: as above; type: cell-based, human; conditions: biotinylated peptide 10 μM, 30 min at 4° C.
Experimental: as §2

peripheral blood cells = assay: as above; type: cell-based, human; conditions: biotinylated peptide 10 μM, 30 min at 4° C.
Experimental: as §2

UASMCs = assay: as above; type: cell-based; conditions: biotinylated peptide 10 μM, 30 min at 4° C.
Experimental: as §2

human MSCs [3] = assay: Capture of cultured MSCs with peptide on […] Streptavidin microbeads in LS columns; type: cell-based; conditions: 160,000 cultured human MSCs, peptide 20 μM on Streptavidin microbeads, LS column
Experimental: In this experiment the ability of the biotinylated cell binding peptide SEQ ID NO: 4 to capture human MSCs from a homogeneous cultured cell population was examined. The cell binding peptide SEQ ID NO: 4 was biotinylated as described herein at Example 2. The cell binding peptide SEQ ID NO: 4, and a non-binding control peptide, were added to separate 300 μl volumes of […] BIOTEC Streptavidin microbeads at a concentration of 20 μM. These beads are made from iron filings, coated with a dextran coating which is functionalized with streptavidin moieties. Peptide was incubated with beads for 45 min on ice. The 300 μl of peptide coated microbeads were added to pre-equilibrated LS columns outside of the magnetic field to evenly distribute the magnetic beads throughout the columns. Columns were then placed into a magnetic field, and excess peptide was washed away with buffer while retaining the peptide coated microbeads. Cultured and expanded human MSCs from bone marrow aspirate (160,000 cells; LONZA) were added to each LS column and allowed to pass through by gravity flow. Flowthrough was collected and cycled through the columns 5 times, after which the columns were washed with 5 ml buffer. […] The collected flowthrough with 5 ml wash and eluted cells were spun down, resuspended in a smaller volume, and counted by hemacytometer (see FIG. 17). […]

HUVECs [4] = assay: Endothelial cell phenotype and anti-thrombogenic protein expression on peptide-modified collagen; type: cell-based, human; conditions: HUVECs cultured 24 hours; t-PA and 6-keto Prostaglandin F1a ELISA, flow cytometry
Experimental: Once immobilized on a vascular graft, endothelial cells must retain their characteristic properties of promoting endothelialization. Therefore, the phenotype, viability, and anti-thrombogenic protein expression profiles were evaluated for endothelial cells in the presence of collagen modified with the endothelial cell binding peptide SEQ ID NO: 4 (generated according to Example 7 using BS^3 reagent). […] Specifically, HUVECs were plated on SEQ ID NO: 4 peptide-modified collagen, collagen with 10 μM free SEQ ID NO: 4 peptide or collagen alone for 24 hours. Flow cytometry was performed using a BD […], and ELISAs were performed according to manufacturers instructions. (FIGS. 22A & 22B). Tissue-type Plasminogen Activator (t-PA) and 6-keto Prostaglandin F1a protein expression levels secreted in this assay are aligned with other reports on cultured HUVECS (Kimura and Yokoi-Hayashi, Biochim Biophys Acta, 1996, 1310:1-4; Merhi-Soussi et al., J Leukoc Biol, 2000, 68:881-9).

MSCs = assay: Adipocyte differentiation of peptide-captured MSCs (Oil Red O); type: cell-based, human; conditions: 21 days in adipocyte differentiation medium
Experimental: Adipocyte differentiation. After capture of MSCs using cell binding peptide SEQ ID NO: 4 with the […] magnetic system according to Example 6, the ability of the captured cells to differentiate into an adipocyte lineage was examined. The MSCs present in the […] column eluants (see Example 6) were cultured for 21 days in complete medium (DMEM, 10% FBS, 100 units/mL penicillin, 100 μg/mL streptomycin, and 2 mM glutamine) supplemented with 0.5 mM isobutyl methylxanthine, 1 μM dexamethasone, 10 μM insulin, 200 μM indomethacin, and 1% antibiotic/antimycotic. Following the 21 day incubation, the cells were fixed in 4% paraformaldehyde in PBS for 15 minutes, washed in 60% isopropanol for 5 minutes, and stained with Oil Red 0 (SIGMA) for 10 minutes to determine the extent of adipogenesis (see FIG. 26, panels A (undifferentiated MSCs) and panel B (adipocyte differentiated MSCs)). The image of the adipose differentiated cells (FIG. 26, panel B) contains a larger magnification inset where the lipid vacuoles are clearly visible.

SSFWDVCQGDGTCYGGGSR (SSFWDVCQGDGTCYGGGSRGSSG-{K(biotin)}; cysteine pairing not given here) [SEQ ID NO: 4, tested biotinylated with GSSGK(biotin) or other spacer at the C-terminus]
binding to human ASCs (percent positivity relative to Neutravidin-PE staining) (human ASCs): high binding
binding to human MSCs (percent positivity relative to Neutravidin-PE staining) (human MSCs [1]): high binding
binding to dermal fibroblasts (percent positivity relative to Neutravidin-PE staining) (dermal fibroblasts): high binding
cross-reactivity with ECFCs (ECFCs): strongly
cross-reactivity with HUVECs (HUVECs [2]): strongly
cross-reactivity with peripheral blood cells (peripheral blood cells): no cross-reactivity
cross-reactivity with UASMCs (UASMCs): weakly
capture of MSCs (human MSCs [3]): approximately 70%
endothelial cell phenotype and anti-thrombogenic protein secretion (HUVECs [4]): maintained their endothelial cell phenotype and their ability to secrete anti-thrombogenic proteins
adipocyte differentiation of captured MSCs (MSCs): adipogenesis pathway remains intact
